“Also recorded” adds a separate entry of the source.
Key:
[1] = Incubation of bracken extract in rumen liquid, in vitro; assay type: in vitro ADME, Jersey cows; conditions: boiled (sterilized) or pre-frozen rumen fluid
[2] = Toxicokinetics in plasma after oral administration of bracken extract or dried bracken fern; assay type: in vivo, Jersey heifers; conditions: bracken extract or dried bracken fern, Experiments 2, 3 and 5
Procedure: Two heifers (no’s 4848 and 4849) were used in a series of five experiments (Table 1) in a cross-over design including intravenous administration of pure PTA, oral administration of bracken extract and oral administration of dried bracken fern. At least 2 weeks elapsed between each experiment.
(§1) Oral exposure, bracken extract. Bracken extract was administered orally by gavage in Experiment 2 (170 and 172 mL) and Experiment 5 (820 and 850 mL), to obtain PTA doses of 0.41 and 2 mg kg^-1 b.w (1.025 and 5.000 μmoles kg^-1), respectively. Blood and urine samples were collected up to 48 hours after gavage and samples were processed and stored as described previously.
(§2) Oral exposure, dried bracken fern. In Experiment 3, dried bracken fern was milled to a fine powder. Immediately before administration, the powder was mixed with water to produce a slurry (15 g of bracken per 100 mL of water). The slurry was administered orally by gavage (400 mL and 380 mL) corresponding to a PTA dose of 1.6 mg kg^-1 b.w (4 μmoles kg^-1). Blood and urine samples were collected up to 72 hours after gavage and the samples were processed and stored as described above.
(§3) Concentrations of PTA in plasma of individual animals were evaluated by non-compartmental analysis. Toxicokinetic variables were calculated using standard kinetic equations. The area under the curve (AUC) and the area under the first moment curve (AUMC) were determined using combined linear and natural logarithm trapezoidal rules. The terminal elimination rate was determined using the last three data points of the curve.
(§4) PTA and PTB were analysed by LC-MS after purification using solid phase extraction (SPE) columns as reported in Aranha et al.. The limit of quantification of PTA and PTB in plasma was 3.0 x 10^−3 μM and 9.30 x 10^−3 μM, respectively. Limit of quantifications in diluted urine was 13 x 10^−3 μM for PTA and 8.28 x 10^−3μM for PTB.

[3] = Urinary recovery after oral administration of bracken extract or dried bracken fern; assay type: in vivo, Jersey heifers; conditions: bracken extract or dried bracken fern
Procedure: as §1, §2, §4

[4] = cited from earlier work
[5] = One-week repeated dose trial with dried bracken, plasma toxicokinetics; assay type: in vivo, Jersey heifers; conditions: dried bracken, 7 days
From the text: The two heifers used for the single dose trials were also used for the one week repeated dose study together with an additional two Jersey heifers (no’s 1550 and 1567; Harald Hansen Eftf. I/S, Slangerup, Denmark) weighing 163 to 237 kg. The additional two heifers had never been exposed to PTA or to bracken fern. A wash-out period of 20 days between the last single-dose experiment and the one week repeated dose trial was established for heifers no’s 4848 and 4849.
All four heifers were fed dried bracken powder (top-dressed and molasses added). twice a day during a period of 7 days providing a daily PTA dose of 2 mg kg^-1 (5 μmoles kg^-1). On Day 8, the heifers no 4848 and no 1567 were additionally fed in the morning and euthanized 1 hour after using a captive bolt pistol and exsanguination. The two other heifers (no 4849 and no 1550) were euthanized 15 h after the last dose on Day 7 (Fig 2).
Blank blood samples were collected before the first dose was given. On Day 1 and Day 7 blood samples were collected after the morning dose at predetermined time points between 1 and 6 h after dosing (1, 2, 3, 5 and 6 hours). On Day 2 to Day 6 blood samples were collected daily 1 hour after 50% or more of the morning feed had been ingested, since the bracken fern was not eaten instantly. On Day 8 blood samples were collected just before euthanasia. Blood samples were processed and stored as described above.
as §3

[6] = cows fed bracken for 5 days, PTA dose 23 μmol kg^-1

## CC1=C[C@]2(O[C@@H]3O[C@H](CO)[C@@H](O)[C@H](O)[C@H]3O)C[C@@H](C)C(=O)[C@@H]2[C@](C)(O)C12CC2 [PTA, (2'R,3a'R,4'S,7a'R)-4'-Hydroxy-2',4',6'-trimethyl-3'-oxo-2',3',3a',4'-tetrahydrospiro[cyclopropane-1,5'-inden]-7a'(1'H)-yl β-D-glucopyranoside]
[1]
  degradation of PTA in boiled or pre-frozen rumen fluid: did not reveal any degradation; also recorded: did not degrade PTA
[2]
  PTA in plasma after oral administration: not detected; also recorded: neither detected
[2]; listed as ptaquiloside
  PTA in plasma after oral administration: did not result in observations of ptaquiloside in body fluids
[3]
  PTA in urine after oral administration: neither detected
[4]
  time after feeding bracken at which PTA was found in milk: 38 h
[4]; [6]
  PTA excreted in milk as share of the dose: 9.6 % of the dose
  plateau of PTA excreted in milk: 50 µM
[4]; one cow fed 6 kg freshly cut bracken daily for 7 days, PTA 540 μmol day^-1
  PTA concentration in milk: 0.28 µM
[5]
  PTA in plasma after repeated oral administration: not detected

— paper PMC6588243, “Fate of ptaquiloside—A bracken fern toxin—In cattle” (PLoS ONE, 2019)
